For orientation: IC50 means the concentration needed to halve the response being measured.

A value given as a limit tells only on which side of the number the result lay.

The test system of assay [1] is basophil cells. Kind of assay: Basophil ionomycin activation: histamine release assay. Format: cell-based, human. To be noted: Basophils. On the procedure: (§1) The basophil activation assay was carried out using whole human peripheral blood from donors allergic to dust mites with the majority of the red blood cells removed by dextran sedimentation. Human peripheral blood was mixed 1:1 with 3% dextran T500 and RBCs were allowed to settle for 20-25 min. The upper fraction was diluted with 3 volumes of D-PBS and cells were spun down for 10 min at 1500 rpm, RT. Supernatant was aspirated and cells were washed in an equal volume MT-buffer. Finally, cells were resuspended in MT-buffer containing 0.5% DMSO in the original blood volume. 80 uL cells were mixed with 20 uL compound in the presence of 0.5% DMSO, in triplicate, in a V-bottom 96-well tissue culture plate. A dose range of 8 compound concentrations was tested resulting in a 10-point dose response curve including maximum (stimulated) and minimum (unstimulated) response. […] The cells were stimulated for 30 minutes at 37° C., 5% CO2. The plate was spun for 10 min at 1500 rpm at room temperature and 80 uL the supernatant was harvested for histamine content analysis using the histamine ELISA kit supplied by Immunotech. The ELISA was performed according to supplier's instructions.
Assays for ionomycin-induced basophil cell degranulation were carried out as described for the Basophil IgE or Dustmite Activation Assay (Section 6.4.6, supra), with the exception that following incubation with compound, cells were stimulated with 20 μl of 2 μM ionomycin.

Assay [2] deals with cultured human mast cells (CHMC). Kind of assay: CHMC low cell density ionomycin activation: hexosaminidase (Hexos.) release. Format: cell-based.
In assay [3] the test system is basophil cells. Kind of assay: Basophil IgE activation: histamine release assay. Format: cell-based, human. The following applies: Basophils, anti-IgE. The method, then: as §1
The test system of assay [4] is bone marrow derived mast cells (BMMC). Put plainly: BMMC high cell density ionomycin activation: hexosaminidase. Format: cell-based, mouse. The following applies: second part of TABLE 1, read-out: BMMC Ionomycin hexos. IC50.
Assay [5] has the same test system. Put plainly: BMMC high cell density IgE activation: hexosaminidase. Format: cell-based, mouse. To be noted: anti-IgE, second part of TABLE 1, read-out: BMMC anti-IgE hexos. IC50. A digest of the protocol: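 IgE-sensitized BMMC at 1-3×10^6 cells/ml preincubated 1 hour at 37° C. with compound (0.5% DMSO), then stimulated 1 hour with DNP-BSA (6× stimulus 60 ng/ml). Supernatant hexosaminidase measured with 2 mM 4-methylumbelliferyl-N-acetyl-glucosaminide substrate at 37° C., read at 5–30 minutes.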

Assay [6] deals with cultured human mast cells (CHMC). Kind of assay: CHMC low cell density anti-IgE activation: hexosaminidase (Hexos.) release. Format: cell-based.

As for `Fc1cnc(Nc2ccc(N3CCOCC3)cc2)nc1Nc1ccc(N2CCOCC2)cc1` [R926114, N2,N4-Bis[4-(N-morpholino)phenyl]-5-fluoro-2,4-pyrimidinediamine], the IC50 is 10 µM with basophil cells [1]; 8.1 µM in assay [2]; 1.7 µM with basophil cells [3]; greater than 10 µM in assay [4]; greater than 10 µM in assay [5]; 3.43 µM in assay [6].

The record behind these values is US9499493B2, “2,4-pyrimidinediamine compounds and their uses” (Rigel Pharmaceuticals, Inc., priority 2002, dated 2016).
